Results: patent publication US20120009203A1, “Depletion of cancer stem cells” (priority 2010, published 2012)
“Also recorded” adds a separate entry of the source.

Key:
[1] = test system: pancreatic cells (BXPC3); experiment: Cell death of BXPC3 pancreatic cells; type: cell-based; conditions: FIG. 26
[2] = test system: OSCCs; experiment: Cell death of OSCCs by propidium iodide staining; type: cell-based, human; conditions: for levels of cell death (propidium iodide staining): overnight; for Dose dependent effect on oral tumors: UC-1 (OSCCs, differentiated oral tumor), FIG. 25
Description: (§1) OSCSCs and OSCCs were treated with HEMA (1:600) and the chemotherapeutic drug cisplatinum at 10 μg/ml, 40 μg/ml and 80 μg/ml. After an overnight incubation the levels of cell death in each tumor type was determined using propidium iodide staining.
(§2) OSCSCs and OSCCs were irradiated at 2 Gy, 10 Gy and 20 Gy and left untreated or treated with chemotherapeutic drug cisplatinum at 40 μg/ml. After an overnight incubation the levels of cell death in each tumor type was determined using propidium iodide staining.
(§3) OSCSC and OSCCs were treated with Paclitaxel at 10 μg/ml, 40 μg/ml and 80 μg/ml in the presence and absence of NAC (20 mM) and after an overnight incubation the levels of cell death were determined using propidium iodide staining.

[3] = test system: OSCSCs; experiment: Cell death of OSCSCs by propidium iodide staining; type: cell-based, human; conditions: overnight
Description: as §1, §2, §3

[4] = test system: OSCSCs; experiment: Cell death of OSCSCs by propidium iodide staining; type: cell-based, human; conditions: UC2 (OSCSCs, stem-like oral tumors); FIG. 25
[5] = test system: undifferentiated MSCs; experiment: Cell death of MSCs versus osteoblasts, flow cytometry of PI stained cells; type: cell-based, human; conditions: undifferentiated MSCs compared to differentiated osteoblasts; different concentrations of HEMA; overnight; FIG. 8F
Description: FIG. 8. […] After 2 days of co-cultures, Alkaline Phosphatase staining was performed. […] The ALP stain densities for each well were determined using photoshop software (B). […] After 2 days of co-cultures Alkaline Phosphatase staining was performed. […] The ALP stain densities for each well were determined using photoshop software (D). Stem cells and Osteoblasts were cultured with and without untreated PBMCs as described above and after two days of incubation the supernatants were removed and subjected to specific ELISA for VEGF (E). Undifferentiated MSCs and those differentiated to osteoblasts were cultured in the absence and presence of different concentrations of HEMA as indicated in the figure and the levels of cell death were determined by flow cytometric analysis of PI stained MSCs and osteoblasts after an overnight incubation (F). […] After an overnight incubation, the cells were washed and B7H1 surface expression was determined on MSC gated populations. Isotype control antibodies were used as controls (I). MSCs were left untreated or treated with IFN-γ (500 u/ml). After an overnight incubation, MSCs were washed and the B7H1 surface expression was determined on MSC.
Moreover, when MSCs were cultured with NK cells alone or NK cells with monocytes significant induction of B7H1 surface expression could be observed in surviving MSCs (FIG. 8I). […]

[6] = test system: lung (A549) tumors; experiment: Cell death of A549 lung tumors; type: cell-based; conditions: A549 pre-treated 5 days with supernatants from anergized NK cells (IL-2+anti-CD16 mAb), then Cisplatin overnight; FIG. 32
Description: NK treatments were carried out for 24 hours before the supernatants were removed and used to treat A549 lung tumors for 5 days. All the NK supernatant treated lung tumors were then washed and treated with different concentrations of Cisplatin as shown in the figure and incubated overnight before they were stained with propidium iodide to determine cell death in each sample.

[7] = OSCCs, HEMA 1:600, cisplatinum 10, 40 and 80 μg/ml, FIG. 15
[8] = OSCSCs, HEMA 1:600, cisplatinum 10, 40 and 80 μg/ml, FIG. 15

With CC(=O)N[C@@H](CS)C(=O)O [NAC, N-acetylcysteine] the “effect of NAC on cisplatin mediated killing of pancreatic cells” value ([1]; in the presence of cisplatin) was “inhibits cisplatin mediated killing”.

For CC(=O)O[C@H]1C(=O)[C@@]2(C)[C@H]([C@H](OC(=O)c3ccccc3)[C@]3(O)C[C@H](OC(=O)[C@H](O)[C@@H](NC(=O)c4ccccc4)c4ccccc4)C(C)=C1C3(C)C)[C@]1(OC(C)=O)CO[C@@H]1C[C@@H]2O [Paclitaxel, paclitaxel], the “levels of cell death (propidium iodide staining)” value ([2]; OSCCs, Paclitaxel 10, 40 and 80 μg/ml with and without NAC 20 mM, FIG. 17) was “lysed both cell types”, the “Dose dependent effect on oral tumors” value [2] was “affects both cell types similarly” and the “levels of cell death (propidium iodide staining)” value ([3]; OSCSCs (cancer stem cells), Paclitaxel 10, 40 and 80 μg/ml with and without NAC 20 mM, FIG. 17) was “Lysis”. The “levels of cell death (propidium iodide staining)” value ([3]; OSCSCs (cancer stem cells), Paclitaxel 10, 40 and 80 μg/ml with and without NAC 20 mM, FIG. 17, listed as paclitaxel) was “lysed both cell types” and the “Dose dependent effect on oral tumors” value [4] was “affects both cell types similarly”.

In the case of C=C(C)C(=O)OCCO [HEMA], the “levels of cell death (propidium iodide staining)” value [2, 7] is reported as “lysed OSCCs significantly”, the “levels of cell death (propidium iodide staining)” value [3, 8] is reported as “significantly more resistant; also recorded: Resistance” and the “levels of cell death (PI staining, flow cytometry)” value [5] is reported as “induced significant cell death”.

N.N.[Cl][Pt][Cl] [Cisplatin, cisplatin] was tested, and the “levels of cell death (propidium iodide staining)” value ([2]; OSCCs irradiated at 2, 10, 20 Gy, cisplatinum 40 μg/ml, FIG. 16) was “lysed OSCCs significantly”, the “levels of cell death (propidium iodide staining)” value [2, 7] was “lysed OSCCs significantly” and the “Dose dependent effect on oral tumors” value [2] was “increased effect on differentiated OSCCs”. For the same molecule, the “levels of cell death (propidium iodide staining)” value ([3]; OSCSCs irradiated at 2, 10, 20 Gy, cisplatinum 40 μg/ml, FIG. 16) was “significantly more resistant; also recorded: Resistance”, the “levels of cell death (propidium iodide staining)” value [3, 8] was “significantly more resistant; also recorded: Resistance” and the “cisplatin mediated killing of pancreatic cells” value [1] was “Dose dependent increase”. The “cell death by Cisplatin (propidium iodide)” value [6] was “highest induction of cell death by Cisplatin” and the “Dose dependent effect on oral tumors” value [4] was “does not kill OSCSCs”.
